Data taken from ChEMBL document CHEMBL1201862, “PubChem BioAssay data set” (2004).
Calls of active or inactive are those of the source.

Legend:
[1] = molecular target: Serine/threonine-protein phosphatase (Candida dubliniensis (strain CD36 / CBS 7987 / NCPF 3949 / NRRLY-17841) (Yeast), UniProt B9W6M3); test: calcineurin pathway inhibitors in yeast reporter, dose response, S. cerevisiae, CDRE-lacZ, luminescence, secondary (AID 2388); format: functional, cell-based;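 further: yeast reporter cells carrying a calcineurin-responsive lacZ construct stimulated with calcium chloride; luminescent beta-galactosidase reporter signal in whole cells rather than isolated phosphatase activity; potency for inhibition where a drop in reporter signal means calcineurin blockade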
[2] = cytotoxicity in HPDE-C7 cells, cell-based, fluorescence, HTS (AID 430); format: functional; conditions: Homo sapiens
[3] = cytotoxicity in KRAS-transformed pancreatic duct cells, primary screen, cell-based, fluorescence, HTS (AID 431); format: functional; conditions: Homo sapiens;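 further: cell line used: HPDE-C7K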
[4] = NIH-3T3 fibroblast cytotoxicity, dose response, cytotoxicity control, cell-based, fluorescence, Alamar Blue, secondary assay (AID 2327); format: functional;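 further: NIH-3T3 mouse fibroblasts cultured with fluconazole at 8 µg/mL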
[5] = C. albicans growth with fluconazole, confirmation, fluorescence, retest (AID 2467); format: functional, cell-based
[6] = molecular target: T1, Heat shock factor protein 1 (Mus musculus, UniProt P38532); test: HSF1 potentiators in luciferase reporter cells, confirmation, cell-based, NIH3T3, luminescence, dose retest (AID 435004); format: functional;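 further: stress induced by proteasome inhibitor MG132 added 30 min after compound; luciferase reporter driven by HSF1 response element in NIH3T3 cells; actives raise luminescence as potentiators of the MG132 stress response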
T1 sequence (P38532 whole entry): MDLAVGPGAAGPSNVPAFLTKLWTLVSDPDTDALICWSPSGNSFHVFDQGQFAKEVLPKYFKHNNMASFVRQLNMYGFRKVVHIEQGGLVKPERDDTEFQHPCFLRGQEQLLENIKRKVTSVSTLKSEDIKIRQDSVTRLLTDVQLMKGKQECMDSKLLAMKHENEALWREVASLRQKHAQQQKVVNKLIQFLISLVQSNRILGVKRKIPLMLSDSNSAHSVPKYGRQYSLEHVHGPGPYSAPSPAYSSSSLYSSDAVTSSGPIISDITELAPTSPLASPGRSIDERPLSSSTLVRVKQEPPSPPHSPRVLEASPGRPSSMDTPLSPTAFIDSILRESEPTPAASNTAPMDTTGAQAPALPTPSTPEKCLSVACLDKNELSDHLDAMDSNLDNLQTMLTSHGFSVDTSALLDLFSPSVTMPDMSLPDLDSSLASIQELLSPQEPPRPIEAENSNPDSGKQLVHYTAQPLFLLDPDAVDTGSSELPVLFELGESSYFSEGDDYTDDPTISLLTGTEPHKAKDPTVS

[7] = molecular target: ATP-dependent molecular chaperone HSP82 (Candida albicans (strain WO-1) (Yeast), UniProt C4YTQ8); test: loss of DOC-induced GRE-beta-galactosidase reporter signal, dose response, Hsp90 inhibitor project, S. cerevisiae, luminescence (AID 2400); format: functional, cell-based;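 further: beta-galactosidase luminescence from glucocorticoid response element reporter as proxy for Hsp90 function; inhibitor potency where signal loss means Hsp90 inhibition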
HeLa = test: Cytotoxicity counterscreen assay for transcriptional activators of heat shock protein 70 (Hsp70). [Related pubchem assays: 1203, 1252 ]; format: functional; conditions: Homo sapiens;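 further: cells exposed to compound for 16 hours before readout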
[8] = molecular target: Induced myeloid leukemia cell differentiation protein Mcl-1 (Homo sapiens, UniProt Q07820); format: functional
[9] = Luminescence Cell-Based Dose Response HTS to Identify Inhibitors of 5'UTR Stem-Loop Driven Prion Protein mRNA Translation in H4 Neuroglioblastoma Cells. [Related pubchem assays: 1827 (Project Summary), 1813 (Primary HTS)]; format: functional
[10] = inhibitors of SNCA 5'UTR-driven reporter translation, confirmation, H4 neuroglioma cells, luminescence (AID 1988); format: functional, cell-based
Prothrombin = Prothrombin (Bos taurus, UniProt P00735); test: thrombin inhibition, dose response, biochemical, fluorescence polarization, uHTS hits (AID 602369); format: functional
[11] = inhibitors of firefly luciferase expression or activity, dose response, H4 neuroglioma cells, luminescence (AID 1990); format: functional, cell-based
[12] = molecular target: 72 kDa type IV collagenase (Homo sapiens, UniProt P08253); test: Dose Response validation of uHTS RPN11 inhibitor hits using a MMP-2 Fluorescence assay.; format: functional
[13] = enhancers of respiration in Yfh1-depleted yeast, dose response, Friedreich's ataxia, plus single-dose screen (AID 1465); format: functional;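 further: yeast depleted of Yfh1p frataxin homolog grown on glycerol needing respiration; WST-1 tetrazolium dye reduction as measure of cellular dehydrogenase metabolic activity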
[14] = molecular target: T2, Microphthalmia-associated transcription factor (Homo sapiens, UniProt O75030); test: TRPM1 promoter luciferase signal decrease, dose response, MITF inhibitor project, cell-based, SK-MEL-5, cherry-picked, set 3 (AID 493073); format: functional
T2 sequence (O75030 whole entry): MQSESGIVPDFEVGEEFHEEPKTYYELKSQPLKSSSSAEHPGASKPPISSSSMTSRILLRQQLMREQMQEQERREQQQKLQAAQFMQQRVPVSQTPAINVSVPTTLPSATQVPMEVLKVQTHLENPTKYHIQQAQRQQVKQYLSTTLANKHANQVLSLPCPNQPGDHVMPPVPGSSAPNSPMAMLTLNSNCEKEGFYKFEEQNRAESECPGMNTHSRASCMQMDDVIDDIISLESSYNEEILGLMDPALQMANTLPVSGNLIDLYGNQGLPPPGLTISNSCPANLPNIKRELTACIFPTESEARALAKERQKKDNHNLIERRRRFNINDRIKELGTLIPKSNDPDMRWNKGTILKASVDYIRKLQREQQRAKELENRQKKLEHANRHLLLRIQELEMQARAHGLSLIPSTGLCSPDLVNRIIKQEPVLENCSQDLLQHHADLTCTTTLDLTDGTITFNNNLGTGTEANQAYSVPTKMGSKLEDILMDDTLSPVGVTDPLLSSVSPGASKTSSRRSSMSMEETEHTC

[15] = molecular target: 26S proteasome non-ATPase regulatory subunit 14 (Homo sapiens, UniProt O00487); test: inhibition of proteasome subunit RPN11 – biochemical, fluorescence polarization, uHTS hits, confirmation (AID 602368); format: functional
[16] = molecular target: Sphingosine 1-phosphate receptor 1 (Homo sapiens, UniProt P21453); format: functional;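 further: Tango beta-arrestin reporter U2OS cells stimulated with S1P near its EC80; inhibitor potency meaning antagonism of receptor activation by the natural agonist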
[17] = molecular target: T3, Replicative DNA helicase DnaB (Mycobacterium tuberculosis, UniProt P9WMR3); test: DnaB intein splicing inhibitors, dose response, biochemical, cell-free fluorescence (AID 449749); format: functional
T3 sequence (P9WMR3 whole entry): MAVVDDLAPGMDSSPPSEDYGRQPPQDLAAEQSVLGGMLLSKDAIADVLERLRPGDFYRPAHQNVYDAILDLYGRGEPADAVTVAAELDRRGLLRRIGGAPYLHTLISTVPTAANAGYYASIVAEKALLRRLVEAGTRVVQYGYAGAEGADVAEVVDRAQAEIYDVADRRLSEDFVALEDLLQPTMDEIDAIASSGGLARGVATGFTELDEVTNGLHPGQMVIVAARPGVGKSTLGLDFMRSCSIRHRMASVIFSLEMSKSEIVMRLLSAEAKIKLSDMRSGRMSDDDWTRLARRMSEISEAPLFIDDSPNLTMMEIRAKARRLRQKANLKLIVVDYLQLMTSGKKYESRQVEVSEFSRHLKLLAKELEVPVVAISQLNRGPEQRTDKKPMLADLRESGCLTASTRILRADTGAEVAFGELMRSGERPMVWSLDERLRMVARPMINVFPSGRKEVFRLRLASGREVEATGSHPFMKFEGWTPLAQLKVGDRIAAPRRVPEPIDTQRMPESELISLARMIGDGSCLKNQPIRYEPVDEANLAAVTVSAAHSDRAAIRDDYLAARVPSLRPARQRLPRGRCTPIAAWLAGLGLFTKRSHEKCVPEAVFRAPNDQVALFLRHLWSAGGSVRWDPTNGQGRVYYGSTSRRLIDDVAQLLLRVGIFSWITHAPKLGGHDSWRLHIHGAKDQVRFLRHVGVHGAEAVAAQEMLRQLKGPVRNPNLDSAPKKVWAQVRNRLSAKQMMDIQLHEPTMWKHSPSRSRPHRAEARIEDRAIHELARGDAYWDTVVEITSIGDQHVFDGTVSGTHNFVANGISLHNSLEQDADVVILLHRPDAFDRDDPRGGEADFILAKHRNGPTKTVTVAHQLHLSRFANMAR

[18] = Shn3 3'UTR reporter inhibitors, dose response, cell-based, Clone20 osteoblasts, firefly luciferase, cherry-picked (AID 624132); format: functional;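 further: firefly luciferase luminescence from reporter carrying the Shn3 3'UTR in osteoblasts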
[19] = molecular target: T4, Sphingosine 1-phosphate receptor 4 (Homo sapiens, UniProt O95977); test: Fluorescence dose response cell-based high throughput screening assay for antagonists of the Sphingosine 1-Phosphate Receptor 4 (S1P4). [Related pubchem assays: 1524 (Confirmation in triplicates.), 1510 (Primary screen.)]; format: functional
T4 sequence (O95977 whole entry): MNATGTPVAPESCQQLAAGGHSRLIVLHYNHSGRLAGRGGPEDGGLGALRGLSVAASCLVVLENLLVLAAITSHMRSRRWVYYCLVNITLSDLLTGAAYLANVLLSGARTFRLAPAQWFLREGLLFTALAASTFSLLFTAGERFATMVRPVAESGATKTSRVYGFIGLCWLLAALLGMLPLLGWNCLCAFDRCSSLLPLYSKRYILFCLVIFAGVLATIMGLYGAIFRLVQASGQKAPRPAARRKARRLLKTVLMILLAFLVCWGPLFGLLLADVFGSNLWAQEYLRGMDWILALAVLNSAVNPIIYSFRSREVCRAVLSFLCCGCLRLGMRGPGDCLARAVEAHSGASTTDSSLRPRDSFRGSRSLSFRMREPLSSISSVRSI

[20] = control 3'UTR Renilla luciferase suppression, dose response, counter-screen for Shn3 inhibitor project, cell-based, Clone20-Shn3RL, cherry-picked (AID 624133); format: functional
Protein RecA = molecular target: T5, Protein RecA (Mycobacterium tuberculosis, UniProt P9WHJ3); test: Fluorescence Cell-Free Homogeneous Dose Retest to Identify Inhibitors of RecA-Intein Splicing Activity. [Related pubchem assays (depositor defined):AID2097, AID2223, AID489010, AID492950]; format: functional
T5 sequence (P9WHJ3 whole entry): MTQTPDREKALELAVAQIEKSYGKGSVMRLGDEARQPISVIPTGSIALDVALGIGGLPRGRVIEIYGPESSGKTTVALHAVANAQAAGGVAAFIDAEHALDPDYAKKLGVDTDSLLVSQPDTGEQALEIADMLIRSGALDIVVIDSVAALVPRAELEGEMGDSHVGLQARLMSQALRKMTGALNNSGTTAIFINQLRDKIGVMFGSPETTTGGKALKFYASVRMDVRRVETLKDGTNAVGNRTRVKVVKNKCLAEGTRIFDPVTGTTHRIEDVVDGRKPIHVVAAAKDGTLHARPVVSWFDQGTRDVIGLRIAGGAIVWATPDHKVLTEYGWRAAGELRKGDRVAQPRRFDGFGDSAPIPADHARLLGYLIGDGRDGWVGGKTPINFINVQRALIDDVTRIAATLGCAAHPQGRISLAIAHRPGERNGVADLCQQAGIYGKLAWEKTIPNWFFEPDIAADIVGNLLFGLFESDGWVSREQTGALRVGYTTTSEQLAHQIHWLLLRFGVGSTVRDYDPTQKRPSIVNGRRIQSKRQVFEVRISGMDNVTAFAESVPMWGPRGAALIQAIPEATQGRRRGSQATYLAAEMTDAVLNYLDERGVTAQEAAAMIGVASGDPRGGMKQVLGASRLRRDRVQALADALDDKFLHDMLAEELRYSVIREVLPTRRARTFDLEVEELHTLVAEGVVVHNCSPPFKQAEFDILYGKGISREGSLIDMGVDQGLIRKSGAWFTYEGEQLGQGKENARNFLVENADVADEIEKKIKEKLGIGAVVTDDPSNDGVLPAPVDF

[21] = molecular target: Beta-2 adrenergic receptor (Homo sapiens, UniProt P07550); test: beta2AR agonists driving receptor internalization, dose response, cell-based, FAP fluorogen, flow cytometry, cherry pick 1 (AID 588763); format: functional
[22] = molecular target: ADP-ribosylation factor GTPase-activating protein 1 (Rattus norvegicus, UniProt Q62848); test: Fluorescence polarization-based biochemical high throughput dose response screening assay to identify inhibitors of ADP-ribosylation factor GTPase activating protein 1 (ARFGAP1).; format: functional
Estrogen receptor = molecular target: T6, Estrogen receptor (Homo sapiens, UniProt P03372); test: potentiators of ERα–SRC-1 coactivator binding, dose response, biochemical, TR-FRET, ERα LBD (AID 737)
T6 sequence (P03372 whole entry): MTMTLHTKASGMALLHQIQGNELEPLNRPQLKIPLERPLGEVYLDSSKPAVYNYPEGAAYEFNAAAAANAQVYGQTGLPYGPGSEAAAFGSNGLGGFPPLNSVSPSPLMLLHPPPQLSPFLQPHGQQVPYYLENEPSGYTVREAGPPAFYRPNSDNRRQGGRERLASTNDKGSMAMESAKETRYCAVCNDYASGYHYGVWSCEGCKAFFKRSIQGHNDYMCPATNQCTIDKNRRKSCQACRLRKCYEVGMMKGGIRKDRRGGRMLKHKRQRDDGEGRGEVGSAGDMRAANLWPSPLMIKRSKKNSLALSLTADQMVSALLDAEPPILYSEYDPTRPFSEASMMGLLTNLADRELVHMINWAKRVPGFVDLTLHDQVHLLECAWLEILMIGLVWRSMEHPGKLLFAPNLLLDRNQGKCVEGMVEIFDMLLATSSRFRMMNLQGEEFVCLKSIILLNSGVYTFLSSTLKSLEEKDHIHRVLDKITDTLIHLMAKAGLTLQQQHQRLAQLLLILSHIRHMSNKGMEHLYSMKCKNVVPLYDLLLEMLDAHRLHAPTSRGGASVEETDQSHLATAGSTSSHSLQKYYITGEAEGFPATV

ATP-dependent molecular chaperone HSP82, sequence (C4YTQ8 whole entry): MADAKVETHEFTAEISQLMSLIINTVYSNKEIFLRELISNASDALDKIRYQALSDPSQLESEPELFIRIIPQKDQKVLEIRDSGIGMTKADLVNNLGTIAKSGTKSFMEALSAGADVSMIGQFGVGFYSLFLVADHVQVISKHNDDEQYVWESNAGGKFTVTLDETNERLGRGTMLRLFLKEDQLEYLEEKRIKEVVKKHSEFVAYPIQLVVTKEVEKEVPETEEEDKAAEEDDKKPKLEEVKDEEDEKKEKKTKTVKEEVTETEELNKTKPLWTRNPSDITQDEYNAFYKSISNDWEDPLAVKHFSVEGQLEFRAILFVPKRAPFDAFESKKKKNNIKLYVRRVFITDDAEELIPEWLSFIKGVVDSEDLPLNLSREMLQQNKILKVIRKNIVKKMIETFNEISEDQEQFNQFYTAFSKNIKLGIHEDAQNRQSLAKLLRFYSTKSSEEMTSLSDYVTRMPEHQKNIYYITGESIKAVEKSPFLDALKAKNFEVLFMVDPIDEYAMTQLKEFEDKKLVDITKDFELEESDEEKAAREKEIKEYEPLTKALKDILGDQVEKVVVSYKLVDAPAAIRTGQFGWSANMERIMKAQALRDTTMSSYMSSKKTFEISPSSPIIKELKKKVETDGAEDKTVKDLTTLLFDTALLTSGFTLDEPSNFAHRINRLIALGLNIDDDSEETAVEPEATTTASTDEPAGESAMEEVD
Beta-2 adrenergic receptor, sequence (P07550 whole entry): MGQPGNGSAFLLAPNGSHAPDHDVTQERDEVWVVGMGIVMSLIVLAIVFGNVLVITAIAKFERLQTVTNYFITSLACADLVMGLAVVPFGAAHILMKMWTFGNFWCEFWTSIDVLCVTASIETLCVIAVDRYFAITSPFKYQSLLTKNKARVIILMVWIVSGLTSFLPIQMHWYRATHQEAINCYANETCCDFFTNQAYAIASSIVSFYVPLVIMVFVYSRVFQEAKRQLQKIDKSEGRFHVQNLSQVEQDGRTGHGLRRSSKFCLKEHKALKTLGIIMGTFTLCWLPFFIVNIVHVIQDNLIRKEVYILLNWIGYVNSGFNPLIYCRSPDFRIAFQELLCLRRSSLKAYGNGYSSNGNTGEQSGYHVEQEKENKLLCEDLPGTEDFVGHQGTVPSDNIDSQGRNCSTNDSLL
26S proteasome non-ATPase regulatory subunit 14, sequence (O00487 whole entry): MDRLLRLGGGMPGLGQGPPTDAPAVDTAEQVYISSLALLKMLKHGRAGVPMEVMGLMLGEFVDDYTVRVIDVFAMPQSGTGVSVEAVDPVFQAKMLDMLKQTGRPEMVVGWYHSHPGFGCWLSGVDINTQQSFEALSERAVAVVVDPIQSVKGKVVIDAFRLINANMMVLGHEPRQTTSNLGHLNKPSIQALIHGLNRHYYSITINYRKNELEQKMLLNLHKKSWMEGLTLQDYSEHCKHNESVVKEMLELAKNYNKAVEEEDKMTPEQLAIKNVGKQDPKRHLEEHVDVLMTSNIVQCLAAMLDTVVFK
Sphingosine 1-phosphate receptor 1, sequence (P21453 whole entry): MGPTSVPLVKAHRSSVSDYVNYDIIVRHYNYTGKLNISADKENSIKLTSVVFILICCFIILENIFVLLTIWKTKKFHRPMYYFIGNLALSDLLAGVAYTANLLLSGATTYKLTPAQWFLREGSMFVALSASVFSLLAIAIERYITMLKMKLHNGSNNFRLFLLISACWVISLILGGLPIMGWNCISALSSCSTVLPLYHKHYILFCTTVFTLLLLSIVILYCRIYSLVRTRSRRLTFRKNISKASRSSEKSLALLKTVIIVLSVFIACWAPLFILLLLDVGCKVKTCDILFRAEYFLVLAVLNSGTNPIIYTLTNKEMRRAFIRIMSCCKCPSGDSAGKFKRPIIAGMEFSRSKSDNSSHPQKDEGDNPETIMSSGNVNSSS
Serine/threonine-protein phosphatase, sequence (B9W6M3 whole entry): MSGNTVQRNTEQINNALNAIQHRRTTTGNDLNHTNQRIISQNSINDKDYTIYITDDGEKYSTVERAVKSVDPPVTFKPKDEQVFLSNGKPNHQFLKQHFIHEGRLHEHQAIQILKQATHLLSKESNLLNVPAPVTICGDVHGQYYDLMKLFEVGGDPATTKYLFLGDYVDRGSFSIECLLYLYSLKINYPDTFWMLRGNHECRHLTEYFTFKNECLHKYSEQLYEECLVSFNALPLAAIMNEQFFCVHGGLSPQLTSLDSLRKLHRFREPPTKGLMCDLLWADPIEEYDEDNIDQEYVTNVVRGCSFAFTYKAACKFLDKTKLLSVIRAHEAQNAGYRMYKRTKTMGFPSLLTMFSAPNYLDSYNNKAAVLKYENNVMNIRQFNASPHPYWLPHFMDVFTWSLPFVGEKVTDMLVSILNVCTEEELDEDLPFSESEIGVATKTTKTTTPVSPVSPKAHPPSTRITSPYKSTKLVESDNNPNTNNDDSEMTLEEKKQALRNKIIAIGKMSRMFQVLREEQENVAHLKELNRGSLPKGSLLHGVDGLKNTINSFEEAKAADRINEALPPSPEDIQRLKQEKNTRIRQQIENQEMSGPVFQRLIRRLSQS
Induced myeloid leukemia cell differentiation protein Mcl-1, sequence (Q07820 whole entry): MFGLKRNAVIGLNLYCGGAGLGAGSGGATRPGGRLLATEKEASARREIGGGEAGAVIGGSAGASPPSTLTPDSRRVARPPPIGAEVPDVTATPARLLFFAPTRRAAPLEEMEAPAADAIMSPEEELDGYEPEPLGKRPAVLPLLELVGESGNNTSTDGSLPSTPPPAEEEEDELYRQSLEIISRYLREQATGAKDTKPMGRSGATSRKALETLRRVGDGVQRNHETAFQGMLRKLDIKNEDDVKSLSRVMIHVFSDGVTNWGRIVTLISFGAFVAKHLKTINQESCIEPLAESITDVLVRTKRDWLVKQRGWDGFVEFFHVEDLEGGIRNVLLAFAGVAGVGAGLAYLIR
72 kDa type IV collagenase, sequence (P08253 whole entry): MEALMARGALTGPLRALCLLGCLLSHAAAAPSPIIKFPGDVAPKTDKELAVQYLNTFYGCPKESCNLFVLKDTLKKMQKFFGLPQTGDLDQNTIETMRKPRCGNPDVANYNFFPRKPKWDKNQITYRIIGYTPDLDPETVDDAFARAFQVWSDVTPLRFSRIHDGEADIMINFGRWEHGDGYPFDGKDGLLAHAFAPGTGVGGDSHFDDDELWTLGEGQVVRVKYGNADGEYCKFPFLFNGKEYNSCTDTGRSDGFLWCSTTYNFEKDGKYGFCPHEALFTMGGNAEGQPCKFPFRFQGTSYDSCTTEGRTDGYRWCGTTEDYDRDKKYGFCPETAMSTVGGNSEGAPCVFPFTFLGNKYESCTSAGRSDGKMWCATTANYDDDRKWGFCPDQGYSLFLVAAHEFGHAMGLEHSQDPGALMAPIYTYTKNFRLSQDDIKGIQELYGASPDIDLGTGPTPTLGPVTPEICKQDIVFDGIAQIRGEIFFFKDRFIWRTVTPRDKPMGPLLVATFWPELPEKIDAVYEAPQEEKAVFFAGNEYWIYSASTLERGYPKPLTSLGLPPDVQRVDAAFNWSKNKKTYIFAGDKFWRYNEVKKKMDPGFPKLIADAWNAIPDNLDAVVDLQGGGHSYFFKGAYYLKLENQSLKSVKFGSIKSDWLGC
ADP-ribosylation factor GTPase-activating protein 1, sequence (Q62848 whole entry, the tested form may be a part): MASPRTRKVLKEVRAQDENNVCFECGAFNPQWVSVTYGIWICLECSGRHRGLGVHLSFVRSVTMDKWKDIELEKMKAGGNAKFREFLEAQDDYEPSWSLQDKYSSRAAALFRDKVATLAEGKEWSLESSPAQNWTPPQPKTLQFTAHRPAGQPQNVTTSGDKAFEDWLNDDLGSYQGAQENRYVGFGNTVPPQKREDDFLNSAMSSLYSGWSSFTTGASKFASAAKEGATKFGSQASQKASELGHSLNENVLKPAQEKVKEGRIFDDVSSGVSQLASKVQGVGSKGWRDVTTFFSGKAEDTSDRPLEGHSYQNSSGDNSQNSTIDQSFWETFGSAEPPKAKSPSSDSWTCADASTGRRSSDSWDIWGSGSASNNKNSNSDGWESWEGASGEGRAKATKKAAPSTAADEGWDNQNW

In the case of `COc1ccc(C(c2c(O)ccc3ccccc23)N2CCOCC2)c(OC)c1` (stereo unspecified), the EC50 [1] is reported as > 180 µM (inactive), the EC50 [2] is reported as 4.07 µM (active) and the EC50 [3] is reported as 3.89 µM (active). For the same molecule, the EC50 [4] was 11.6 µM (active), the EC50 [5] was 1.82 µM (active) and the EC50 [6] was 12.5 µM (active). The EC50 [7] was > 160 µM (inactive), the CC50 (HeLa) was 44.3 µM (not active) and the IC50 [8] was 1.62 µM (active).

In the case of `CCN(CCO)c1ccc(N=Nc2cc(C)[nH]n2)cc1`, the EC50 [9] is reported as 4.08 µM (active), the EC50 [10] is reported as 4.94 µM (active) and the IC50 (Prothrombin) is reported as 61.2 µM (active). For the same molecule, the EC50 [11] was 5.43 µM (active), the IC50 [12] was > 100 µM (inactive) and the EC50 [13] was > 100 µM (active). For the same molecule, the AC50 [14] was 3.6 µM (active) and the IC50 [15] was 53 µM (active).

With `CC(C)c1nnc(NC(=O)CCS(=O)(=O)c2nc(-c3cccs3)cc(C(F)(F)F)n2)s1` the IC50 [16] was 13.5 µM (not active), the AC50 [17] was > 120 µM (inactive) and the AC50 [18] was 3.02 µM (active). The IC50 [19] was 1.1 µM (active), the AC50 [20] was 6.01 µM (active) and the EC50 (Protein RecA) was 30.4 µM (inconclusive). For the same molecule, the EC50 [21] was 33.7 µM (inactive).

For `COc1ccc(CCn2c(SCC(=O)Nc3cc(C)on3)nc3ccsc3c2=O)cc1OC`, the IC50 [22] was 44 µM (inactive) and the EC50 (Estrogen receptor) was 12.8 µM (active).
